# In US20240381872A1, “SUBSTITUTED 2,3-DIHYDRO[1,3]THIAZOLO[4,5-B]PYRIDINES, SALTS THEREOF AND THEIR USE AS HERBICIDALLY ACTIVE SUBSTANCES” (BAYER AKTIENGESELLSCHAFT, priority 2021, published 2024):
# Tests used:
# Type in all cases: in vivo
# [1] = system: Setaria viridis (SETVI); assay: Herbicidal pre-emergence action, section A (Table A8); settings: for pest or weed control at 320 g/ha: Setaria viridis, 504 h, read-out: pre-emergence activity against SETVI in %
# Source text: (§1) Seeds of mono- and dicotyledonous weed plants were sown in plastic pots (double sowings with one species of mono- and one species of dicotyledonous weed plants per pot), in sandy loam, and covered with soil. The compounds according to the invention, formulated in the form of wettable powders (WP) or as emulsifiable concentrates (EC), were applied to the surface of the covering soil as aqueous suspension or emulsion, with the addition of 0.5% of an additive, at an application rate of 600 l of water per hectare (converted). Following treatment, the pots were placed in a greenhouse and kept under optimum growth conditions for the test plants. The visual grading of the damage to the test plants was carried out after ca. 3 weeks in comparison to untreated controls (herbicidal effect in percent (%): 100% effect=plants have died off, 0% effect=as control plants).
# [2] = system: Amaranthus retroflexus (AMARE); assay: Herbicidal post-emergence action, section B (Table B11); settings: visual rating about 3 weeks after treatment vs untreated controls
# Experimental: (§2) Seeds of mono- and dicotyledonous weed plants were placed in plastic pots in sandy loam soil (doubly sown with in each case one species of mono- or dicotyledonous weed plants per pot), covered with soil and cultivated in a greenhouse under controlled growth conditions. 2 to 3 weeks after sowing, the test plants were treated at the one-leaf stage. The compounds of the invention, formulated in the form of wettable powders (WP) or as emulsion concentrates (EC), were applied onto the green parts of the plants as aqueous suspension or emulsion with addition of 0.5% additive at a water application rate of 600 liters per hectare (converted). After the test plants had been kept in the greenhouse under optimum growth conditions for about 3 weeks, the activity of the preparations was rated visually in comparison to untreated controls. For example, 100% activity=the plants have died, 0% activity=like control plants.
# [3] = system: Echinochloa crus-galli (ECHCG); assay: Herbicidal pre-emergence action, section A (Table A3); settings: application rate 1280 g/ha, visual grading after ca. 3 weeks vs untreated controls; for pest or weed control at 1280 g/ha: Echinochloa crus-galli, pre-emergence, 504 h, read-out: pre-emergence activity against ECHCG in %
# Source text: as §1
# [4] = system: Amaranthus retroflexus (AMARE); assay: Herbicidal pre-emergence action, section A (Table A11)
# Source text: as §1
# [5] = system: Digitaria sanguinalis (DIGSA); assay: Herbicidal pre-emergence action, section A (Table A12); settings: for pre-emergence activity against DIGSA in % / pest or weed control at 1280 g/ha: application rate 1280 g/ha
# Source text: as §1
# [6] = system: Kochia scoparia (KCHSC); assay: Herbicidal pre-emergence action, section A (Table A4); settings: visual grading after ca. 3 weeks vs untreated controls; for pest or weed control at 320 g/ha: application rate 320 g/ha
# Source text: as §1
# [7] = system: Lolium rigidum (LOLRI); assay: Herbicidal pre-emergence action, section A (Table A5); settings: application rate 1280 g/ha, visual grading after ca. 3 weeks vs untreated controls; for pest or weed control at 1280 g/ha: Lolium rigidum, pre-emergence, 504 h, read-out: pre-emergence activity against LOLRI in %
# Source text: as §1
# [8] = system: Poa annua (POAAN); assay: Herbicidal pre-emergence action, section A (Table A7); settings: visual grading after ca. 3 weeks vs untreated controls
# Source text: as §1
# [9] = system: Veronica persica (VERPE); assay: Herbicidal post-emergence action, section B (Table B10); settings: application rate 1280 g/ha; visual rating about 3 weeks after treatment vs untreated controls
# Experimental: as §2
# [10] = system: Kochia scoparia (KCHSC); assay: Herbicidal post-emergence action, section B (Table B4); settings: visual rating about 3 weeks after treatment vs untreated controls
# Experimental: as §2
# [11] = system: Stellaria media (STEME); assay: Herbicidal post-emergence action, section B (Table B9); settings: application rate 1280 g/ha, visual rating about 3 weeks after treatment vs untreated controls
# Experimental: as §2
# [12] = system: Matricaria inodora (MATIN); assay: Herbicidal pre-emergence action, section A (Table A6); settings: Tripleurospermum inodorum, pre-emergence, 504 h; application rate 1280 g/ha; visual grading after ca. 3 weeks vs untreated controls; read-out: pre-emergence activity against MATIN in %
# Source text: as §1
# [13] = system: Stellaria media (STEME); assay: Herbicidal pre-emergence action, section A (Table A9); settings: application rate 1280 g/ha; for pest or weed control at 1280 g/ha: Stellaria media, 504 h, read-out: pre-emergence activity against STEME in %
# Source text: as §1
# [14] = system: Veronica persica (VERPE); assay: Herbicidal pre-emergence action, section A (Table A10); settings: application rate 1280 g/ha
# Source text: as §1
# [15] = system: Poa annua (POAAN); assay: Herbicidal post-emergence action, section B (Table B7); settings: application rate 1280 g/ha; visual rating about 3 weeks after treatment vs untreated controls
# Experimental: as §2
# [16] = Amaranthus retroflexus, 504 h, application rate 320 g/ha, read-out: pre-emergence activity against AMARE in %
# [17] = Bassia scoparia, pre-emergence, 504 h, read-out: pre-emergence activity against KCHSC in %
# [18] = Digitaria sanguinalis, 504 h, read-out: pre-emergence activity against DIGSA in %
structure (smiles),measurement,setting,value
COC(=O)CCC(=O)N1CSc2cc(C)c(-c3ccc(F)cc3F)nc21 [Example I-084],pre-emergence activity against SETVI in %,[1]; application rate 320 g/ha,100%
same,post-emergence activity against AMARE in %,[2]; application rate 1280 g/ha,90%
same,pre-emergence activity against ECHCG in %,[3],100%
same,pre-emergence activity against AMARE in %,[4]; application rate 1280 g/ha,90%
same,pre-emergence activity against DIGSA in %,[5],100%
same,pre-emergence activity against KCHSC in %,[6]; application rate 1280 g/ha,90%
same,pre-emergence activity against LOLRI in %,[7],100%
same,pre-emergence activity against POAAN in %,[8]; application rate 320 g/ha,100%
same,post-emergence activity against VERPE in %,[9],90%
same,post-emergence activity against KCHSC in %,[10]; application rate 1280 g/ha,90%
same,post-emergence activity against STEME in %,[11],90%
CCC(=O)N1C[S+]([O-])c2cc(C)c(-c3ccc(F)cc3F)nc21 (stereo not shown) [Example I-053],pest or weed control at 1280 g/ha,[12],90%
same,pest or weed control at 1280 g/ha,[13],90%
same,pest or weed control at 320 g/ha,[1]; application rate 320 g/ha,100%
same,pest or weed control at 1280 g/ha,"[2]; Amaranthus retroflexus, post-emergence, 504 h, application rate 1280 g/ha, read-out: post-emergence activity against AMARE in %",90%
same,pest or weed control at 1280 g/ha,[3],100%
same,pest or weed control at 320 g/ha,[4]; [16],90%
same,pest or weed control at 1280 g/ha,"[14]; Veronica persica, 504 h, read-out: pre-emergence activity against VERPE in %",90%
same,pest or weed control at 320 g/ha,"[5]; Digitaria sanguinalis, 504 h, application rate 320 g/ha, read-out: pre-emergence activity against DIGSA in %",100%
same,pest or weed control at 320 g/ha,[6]; [17],90%
same,pest or weed control at 1280 g/ha,[7],100%
same,pest or weed control at 320 g/ha,"[8]; Poa annua, pre-emergence, 504 h, application rate 320 g/ha, read-out: pre-emergence activity against POAAN in %",100%
O=C(N1CSc2cc(Br)c(-c3cccc(Cl)c3F)nc21)C12CCCC1C(Cl)=NO2 (stereo not shown) [Example I-126],pre-emergence activity against STEME in %,[13],90%
same,pre-emergence activity against SETVI in %,[1]; application rate 1280 g/ha,90%
same,post-emergence activity against AMARE in %,[2]; application rate 320 g/ha,90%
same,pre-emergence activity against AMARE in %,[4]; application rate 320 g/ha,90%
same,post-emergence activity against VERPE in %,[9],90%
COCCOCCOCC(=O)N1CSc2cc(C)c(-c3cccc(F)c3F)nc21 [Example I-149],pre-emergence activity against STEME in %,[13],90%
same,pre-emergence activity against SETVI in %,[1]; application rate 320 g/ha,100%
same,pre-emergence activity against ECHCG in %,[3],100%
same,pre-emergence activity against AMARE in %,[4]; application rate 320 g/ha,90%
same,pre-emergence activity against VERPE in %,[14],90%
same,pre-emergence activity against DIGSA in %,[5],100%
same,pre-emergence activity against KCHSC in %,[6]; application rate 1280 g/ha,90%
same,pre-emergence activity against LOLRI in %,[7],90%
same,pre-emergence activity against POAAN in %,[8]; application rate 1280 g/ha,100%
same,post-emergence activity against POAAN in %,[15],90%
Cc1cc2c(nc1-c1cccc(F)c1F)N(C(=O)C(C)C)C[S+]2[O-] (stereo not shown) [Example I-028],pest or weed control at 1280 g/ha,[12],90%
same,pest or weed control at 1280 g/ha,[13],90%
same,pest or weed control at 320 g/ha,[1]; application rate 320 g/ha,100%
same,pest or weed control at 320 g/ha,[4]; [16],90%
same,pest or weed control at 1280 g/ha,[5]; [18],100%
same,pest or weed control at 320 g/ha,[6]; [17],90%
same,pest or weed control at 1280 g/ha,[7],100%
same,pest or weed control at 1280 g/ha,"[8]; Poa annua, pre-emergence, 504 h, application rate 1280 g/ha, read-out: pre-emergence activity against POAAN in %",100%
same,pest or weed control at 320 g/ha,"[10]; Bassia scoparia, post-emergence, 504 h, application rate 320 g/ha, read-out: post-emergence activity against KCHSC in %",90%
same,pest or weed control at 1280 g/ha,"[11]; Stellaria media, post-emergence, 504 h, read-out: post-emergence activity against STEME in %",90%
CCc1ccccc1-c1nc2c(cc1Br)SCN2B(N)N [Example I-080],post-emergence activity against AMARE in %,[2]; application rate 1280 g/ha,90%
same,pre-emergence activity against DIGSA in %,[5],100%
O=C(c1ccccc1C(F)(F)F)N1CSc2cc(Br)c(-c3ccc(F)cc3F)nc21 [Example I-043],post-emergence activity against AMARE in %,[2]; application rate 1280 g/ha,90%
same,pre-emergence activity against POAAN in %,[8]; application rate 1280 g/ha,90%
COc1ccccc1-c1nc2c(cc1C)[S+]([O-])CN2S(C)(=O)=O (stereo not shown) [Example I-101],pest or weed control at 320 g/ha,[1]; application rate 320 g/ha,100%
same,pest or weed control at 1280 g/ha,[3],90%
same,pest or weed control at 1280 g/ha,"[4]; Amaranthus retroflexus, 504 h, application rate 1280 g/ha, read-out: pre-emergence activity against AMARE in %",90%
same,pest or weed control at 1280 g/ha,[5]; [18],90%
same,pest or weed control at 1280 g/ha,"[6]; Bassia scoparia, pre-emergence, 504 h, application rate 1280 g/ha, read-out: pre-emergence activity against KCHSC in %",90%
same,pest or weed control at 1280 g/ha,[7],100%
same,pest or weed control at 1280 g/ha,"[10]; Bassia scoparia, post-emergence, 504 h, application rate 1280 g/ha, read-out: post-emergence activity against KCHSC in %",90%
